From patent publication US8153808B2, “Dihydropyridone amides as P2X7 modulators” (Roche Palo Alto LLC, priority 2008, dated 2012)

Molecular target: T1, P2X7 (UniProt Q99572)
T1 sequence (Q99572 1-595): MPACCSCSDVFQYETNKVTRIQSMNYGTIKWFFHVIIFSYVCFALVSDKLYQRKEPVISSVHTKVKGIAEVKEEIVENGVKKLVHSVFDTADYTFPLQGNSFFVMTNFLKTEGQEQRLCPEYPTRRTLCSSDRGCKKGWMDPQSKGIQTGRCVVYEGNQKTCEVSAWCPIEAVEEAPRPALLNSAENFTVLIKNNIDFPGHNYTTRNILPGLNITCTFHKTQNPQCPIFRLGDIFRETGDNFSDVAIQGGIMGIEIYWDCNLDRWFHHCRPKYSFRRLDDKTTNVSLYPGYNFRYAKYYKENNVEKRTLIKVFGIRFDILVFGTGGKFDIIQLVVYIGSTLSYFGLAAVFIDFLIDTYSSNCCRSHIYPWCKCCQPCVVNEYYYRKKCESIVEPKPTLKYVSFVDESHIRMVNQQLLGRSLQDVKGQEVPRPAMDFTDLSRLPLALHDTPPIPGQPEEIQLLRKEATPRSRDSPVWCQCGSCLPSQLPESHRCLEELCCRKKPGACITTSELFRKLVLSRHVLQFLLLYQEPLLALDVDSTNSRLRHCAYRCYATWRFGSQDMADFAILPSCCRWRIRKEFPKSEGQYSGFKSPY
Experiment: pIC50 values for P2X7 (Table 1)
Format: cell-based
Protocol: Intracellular Calcium Flux (FLIPR) Assay
Stock solutions of compounds were prepared from powders as a 10 mM DMSO stock solution. These solutions were stored at RT during the two week period of these experiments to prevent freeze-thaw of the DMSO stocks. The DMSO stocks were added to the appropriate assay buffer at a concentration of 10 μM, and then diluted serially to the final concentrations that were tested. […] The aqueous solutions of compounds as well as ATP (Sigma A7699) and BzATP (Sigma B6396) were prepared fresh for each day of experiment.
1321N1 cells stably expressing the full length human P2X7 gene (1321N1-hP2X7) and HEK293 cells stably expressing the full length rat P2X7 gene (HEK293-rP2X7) were obtained from the Roche Cell Culture Facility. 1321N1-hP2X7 cells were grown in Dulbecco's Modified Eagle's Medium (DMEM) high glucose supplemented with 10% FBS and 250 μg/mL G418. HEK293-rP2X7 cells were grown in DMEM/F-12 supplemented with 10% FBS, 1 mM CaCl2, 2 mM MgCl2, 2 mM L-Glutamine and 500 μg/ml G418. Cells were split such that they never became >70% confluent.
On the day prior to the experiment, 1321N1-hP2X7 or HEK293-rP2X7 cells were released into suspension with calcium-free PBS+Versene and washed by centrifugation with calcium-free PBS to remove the Versene. Cells were resuspended in growth medium at a density of 2.5×10^5 cells/mL and seeded into black walled, clear bottom 96 well plates (50,000 cells/well) approximately 18 hr prior to intracellular calcium flux experiments.
On the day of the experiment, plates were washed with FLIPR buffer (calcium- and magnesium-free Hank's Balanced Salt Solution (HBSS) supplemented with 10 mM Hepes, 2.5 mM probenecid and 2 mM calcium chloride) using a BIO-TEK 96 channel plate washer and incubated with […] fluo-3 dye at 37° C. for one hr. The dye was then removed by plate washing and the cells were allowed to equilibrate for 20 min at room temperature with antagonist or vehicle (FLIPR buffer). Agonist (100 μM BzATP final concentration for hP2X7; 5 μM BzATP final concentration or rP2X7) was added online with the FLIPR and fluorescence measurements made at 1 sec intervals for 60 sec followed by 3 sec intervals for a further 4 min (5 min total). A final addition of 5 μM ionomycin was made and the maximal BzATP-evoked fluorescence normalized to the maximal ionomycin-evoked fluorescence.

Question: For `COc1cc(I)c(CC(=O)N2C=CC(=O)CC2c2ccccc2)cc1OC` (stereo not drawn) [Compound 1, 1-[2-(2-Iodo-4,5-dimethoxy-phenyl)-acetyl]-2-phenyl-2,3-dihydro-1H-pyridin-4-one], which “pIC50 P2X7” value is on record?
Answer: 6.984

Question: Which “pIC50 P2X7” value does the source give for `COc1cc(I)c(CC(=O)N2C=CC(=O)CC2c2ccccc2C)cc1OC` (stereo not drawn) [Compound 2, 1-[2-(2-Iodo-4,5-dimethoxy-phenyl)-acetyl]-2-o-tolyl-2,3-dihydro-1H-pyridin-4-one] here?
Answer: 5.963

Question: For `COc1cc(I)c(CC(=O)N2C=CC(=O)C[C@H]2c2ccccc2)cc1OC` [Compound 4, (S)-1-[2-(2-Iodo-4,5-dimethoxy-phenyl)-acetyl]-2-phenyl-2,3-dihydro-1H-pyridin-4-one], which “pIC50 P2X7” value is on record?
Answer: 7.418

Question: With `COc1cc(I)c(CC(=O)N2C=CC(=O)C[C@@H]2c2ccccc2)cc1OC` [Compound 5, (R)-1-[2-(2-Iodo-4,5-dimethoxy-phenyl)-acetyl]-2-phenyl-2,3-dihydro-1H-pyridin-4-one] as the compound, how does the “pIC50 P2X7” value read?
Answer: 5.425

Question: For `COc1cc(I)c(CC(=O)N2C=CC(=O)CC2c2ccc(F)cc2)cc1OC` (stereo not drawn) [Compound 6, 2-(4-Fluoro-phenyl)-1-[2-(2-iodo-4,5-dimethoxy-phenyl)-acetyl]-2,3-dihydro-1H-pyridin-4-one], which “pIC50 P2X7” value is on record?
Answer: 6.97

Question: `COc1ccc(Br)c(CC(=O)N2C=CC(=O)CC2c2ccccc2)c1` (stereo not drawn) [Compound 7, 1-[2-(2-Bromo-5-methoxy-phenyl)-acetyl]-2-phenyl-2,3-dihydro-1H-pyridin-4-one] was tested. Which “pIC50 P2X7” value did it give?
Answer: 6.765

Question: For `COc1ccc(CC(=O)N2C=CC(=O)CC2c2ccccc2)c(Br)c1` (stereo not drawn) [Compound 8, 1-[2-(2-Bromo-4-methoxy-phenyl)-acetyl]-2-phenyl-2,3-dihydro-1H-pyridin-4-one], which “pIC50 P2X7” value is on record?
Answer: 5.685

Question: For `COc1cc(Br)c(CC(=O)N2C=CC(=O)CC2C(C)C)cc1OC` (stereo not drawn) [Compound 9, 1-[2-(2-Bromo-4,5-dimethoxy-phenyl)-acetyl]-2-isopropyl-2,3-dihydro-1H-pyridin-4-one], which “pIC50 P2X7” value is on record?
Answer: 5.45

Question: For `COc1cc(Br)c(CC(=O)N2C=CC(=O)CC2C2CCCCC2)cc1OC` (stereo not drawn) [Compound 10, 1-[2-(2-Bromo-4,5-dimethoxy-phenyl)-acetyl]-2-cyclohexyl-2,3-dihydro-1H-pyridin-4-one], which “pIC50 P2X7” value is on record?
Answer: 7.193

Question: `COc1cc(Cl)c(CC(=O)N2C=CC(=O)CC2c2ccccc2)cc1OC` (stereo not drawn) [Compound 11, 1-[2-(2-Chloro-4,5-dimethoxy-phenyl)-acetyl]-2-phenyl-2,3-dihydro-1H-pyridin-4-one] was tested. Which “pIC50 P2X7” value did it give?
Answer: 6.806

Question: For `O=C1C=CN(C(=O)Cc2cc3c(cc2Br)OCCO3)C(c2ccccc2)C1` (stereo not drawn) [Compound 12, 1-[2-(7-Bromo-2,3-dihydro-benzo[1,4]dioxin-6-yl)-acetyl]-2-phenyl-2,3-dihydro-1H-pyridin-4-one], which “pIC50 P2X7” value is on record?
Answer: 5.305

Question: Which “pIC50 P2X7” value does the source give for `COc1cc(Br)c(CC(=O)N2C=CC(=O)C[C@H]2c2ccccc2)cc1OC` [Compound 13, (S)-1-[2-(2-Bromo-4,5-dimethoxy-phenyl)-acetyl]-2-phenyl-2,3-dihydro-1H-pyridin-4-one] here?
Answer: 7.22

Question: With `COc1cc(Cl)c(CC(=O)N2C=CC(=O)C[C@H]2c2ccccc2)cc1OC` [Compound 14, (S)-1-[2-(2-Chloro-4,5-dimethoxy-phenyl)-acetyl]-2-phenyl-2,3-dihydro-1H-pyridin-4-one] as the compound, how does the “pIC50 P2X7” value read?
Answer: 6.705

Question: Which “pIC50 P2X7” value does the source give for `COc1cc(CC(=O)N2C=CC(=O)CC2c2ccccc2)c(C(F)(F)F)cc1OC` (stereo not drawn) [Compound 15, 1-[2-(4,5-Dimethoxy-2-trifluoromethyl-phenyl)-acetyl]-2-phenyl-2,3-dihydro-1H-pyridin-4-one] here?
Answer: 5.395

Question: With `CCOc1cc(CC(=O)N2C=CC(=O)C[C@H]2c2ccc(F)cc2)c(Br)cc1OC` [Compound 16, (S)-1-[2-(2-Bromo-5-ethoxy-4-methoxy-phenyl)-acetyl]-2-(4-fluoro-phenyl)-2,3-dihydro-1H-pyridin-4-one] as the compound, how does the “pIC50 P2X7” value read?
Answer: 7.17
